From patent publication US20250353891A1 (MEDIMMUNE LIMITED, priority 2022, published 2025)
Where two headings read alike, the source gives them in different places. Starred links: 1 amine or outer side, 2 acyl side, 3 side chain; linkers in the order of their positions; H or OH if unused. Non-standard residues stand in square brackets, D forms with d. Residues, ends and D or L forms follow the SMILES beside them. Groups on a side chain read outwards from the residue. *: point of attachment. C18 diacid = O=C(O)CCCCCCCCCCCCCCCCC(=O)*; γGlu = O=C(O)[C@H](CCC(=O)[*:2])N[*:1]; Stearoyl = CCCCCCCCCCCCCCCCCC(=O)*; αMeF = C[C@](N)(Cc1ccccc1)C(=O)O; PEG2 = NCCOCCOCCC(=O)O; AEEA = NCCOCCOCC(=O)O; Aib = CC(C)(N)C(=O)O

Tests used:
[1] = Proteolytic resistance to FasSSGF containing porcine pancreatic pepsin; type: in vitro ADME; details: pig, simulated gastric fluid
Description: Stimulated Gastric Fluid (FasSSGF) Containing Porcine Pancreatic Pepsin Lyophilized porcine pancreatic pepsin (Sigma: P7012) was reconstituted to 0.5 mg/mL (˜2500 units/mL) in freshly prepared FasSSGF (Biorelevant media) to give the enzyme stock solution. Peptide stock solution was prepared to a concentration of 250 μM (˜1.0 mg/mL) in FasSSGF. 200 μL ([…], ˜250 units) of pepsin stock solution was added to 200 μL of peptide solution (1.0 mg/mL, ˜100 μg of peptide, ˜25 nmoles) and the mixture was co-incubated in a temperature-regulated incubator at 37° C. for the duration of the experiment. 30 μL aliquot of the peptide-enzyme mixture was periodically withdrawn (t=0, 5, 10, 15, and 30 min) and quenched immediately by addition of 80 μL of 0.1M ammonium bicarbonate solution in water/acetonitrile (4:1, pH 8) to arrest proteolytic activity. 30 μL aliquot was analyzed by analytical RP-HPLC. Analytical RP-HPLC method: Agilent Polaris C8-A column (4.6×100 mm, 3 micron) eluted with a linear binary gradient of 10-90% MeCN (0.1% TFA v/v) in water (0.1% TFA v/v) over either 10 or 15 mins at 1.5 mL min-1 at 40° C. with detection by UV absorption at 210 nm. Manual integration (AUC) allowed estimation of remaining intact peptide over the time course of the experiment.

recombinant Neprilysin = target: T1, recombinant Neprilysin (Homo sapiens, UniProt P08473); test: Proteolytic resistance to neprilysin; type: in vitro ADME; details: pH 8.3; for remaining at 4 h / remaining at 24 h: isolated enzyme neprilysin
T1 construct: purchased R&D Systems 1182-ZNC-010
T1 sequence (P08473 52-750 limits assumed): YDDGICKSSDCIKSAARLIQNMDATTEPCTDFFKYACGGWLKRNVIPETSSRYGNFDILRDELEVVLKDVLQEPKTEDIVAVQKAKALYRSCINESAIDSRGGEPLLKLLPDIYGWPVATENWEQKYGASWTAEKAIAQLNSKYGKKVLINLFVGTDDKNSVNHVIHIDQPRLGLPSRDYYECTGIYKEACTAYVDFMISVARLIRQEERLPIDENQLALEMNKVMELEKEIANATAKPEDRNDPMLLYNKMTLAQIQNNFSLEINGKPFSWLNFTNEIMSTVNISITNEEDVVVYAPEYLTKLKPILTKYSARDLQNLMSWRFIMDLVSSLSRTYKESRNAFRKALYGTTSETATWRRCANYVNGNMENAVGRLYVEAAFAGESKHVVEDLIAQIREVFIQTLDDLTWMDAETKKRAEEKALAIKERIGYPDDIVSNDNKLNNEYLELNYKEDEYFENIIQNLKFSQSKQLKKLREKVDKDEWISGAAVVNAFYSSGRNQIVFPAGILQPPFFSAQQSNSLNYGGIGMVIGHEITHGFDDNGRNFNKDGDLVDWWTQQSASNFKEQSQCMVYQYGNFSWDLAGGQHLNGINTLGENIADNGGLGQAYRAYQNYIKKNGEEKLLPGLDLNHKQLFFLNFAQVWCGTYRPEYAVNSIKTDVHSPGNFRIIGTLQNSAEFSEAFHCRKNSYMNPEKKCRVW
Description: 10.0 μg (˜10 units) recombinant Neprilysin (R&D Systems: 1182-ZNC-010) was reconstituted to 100 μL (100 μg/mL, ˜100 units/mL) in assay buffer (50 mM Tris, 50 mM NaCl, 50 mM NaHCO3, adjusted to pH 8.3) to give the enzyme stock solution. Peptide stock solutions were prepared to a concentration of ˜250 μM (˜1.0 mg/mL of 4 kDa peptide) in assay buffer. 100 μL (10 μg, ˜10 units) of neprilysin stock solution was added to 100 μL of peptide stock solution (1.0 mg/mL, ˜100 μg of peptide) and the mixture was co-incubated in a temperature regulated incubator at 37° C. for the duration of the experiment. 25 μL aliquots (˜ 12.5 μg initial peptide) of the peptide-enzyme mixture were periodically withdrawn (t=0, 30 mins, 1 h, 2 h, 4 h and 24 h) and quenched immediately by addition to an equal volume ([…]) of 10% TFA (v/v) in 1:1 water/acetonitrile to arrest proteolytic activity. The quenched aliquot centrifuged at 7800 rpm, and 30 μL of the supernatant was analyzed by analytical RP-HPLC as follows: Analytical RP-HPLC method: Agilent Polaris C8-A column (4.6×100 mm, 3 micron) eluted with a linear binary gradient of 10-90% MeCN (0.1% TFA v/v) in water (0.1% TFA v/v) over either 10 or 15 mins at 1.5 mL min-1 at 40° C. with detection by UV absorption at 210 nm. Manual integration (AUC) allowed estimation of remaining intact peptide over the time course of the experiment.

[2] = Proteolytic resistance to FasSSIF/Pancreatin; type: in vitro ADME; details: simulated intestinal fluid
Method in brief: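 Peptide (1.0 mg) in pre-warmed FasSSIF, proteolysis started with fresh FasSSIF/USP Pancreatin and held at 37 °C. Aliquots at 0, 5, 10, 15, 30 min quenched in 10% TFA; remaining intact peptide estimated by RP-HPLC peak area, UV 210 nm.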

[3] = system: GLP-1R knockout (KO) mice; test: Glucose change in GLP-1R knockout mice; type: in vivo, mouse; details: GLP-1R KO mice, s.c., 3 nmol/kg, 120 min vs 0 min, no somatostatin pretreatment
Method in brief: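 GLP-1R knockout mice (n=4-8/group, sorted by body weight) were fasted 2 h, and in some studies pretreated with octreotide 10 mg/kg 30 min before peptide injection. Mice were reused up to 3 times with at least 1-week wash-out.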

wildtype (WT) mice = test: Glucose change in wildtype mice; type: in vivo, mouse; details: s.c., 3 nmol/kg, 120 min vs 0 min, no somatostatin pretreatment
Method in brief: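 Wildtype mice aged 8-14 weeks, fasted 2 h, sometimes pre-treated with octreotide 10 mg/kg 30 min before peptide injection. Blood glucose by glucometer at -30, 0, 30, 60, 120, 180, 240 and 360 min; n=4-8/group, mice reused up to 3 times with ≥1 week wash-out.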

[4] = target: human GLP-1 receptor (hGLP-1R) (Homo sapiens, UniProt P43220); test: cAMP production (HTRF) in CHO cells expressing hGLP-1R; type: cell-based; set-up: expressed in transfected cells; details: for EC50: cAMP in CHO hGLP-1R cells, geometric mean, read-out: hGLP-1R EC50; for % Relative Potency Ratio: % GLP-1R activity relative to GLP-1 / % GlucR activity relative to glucagon
Sequence of human GLP-1 receptor (hGLP-1R) (P43220 24-463): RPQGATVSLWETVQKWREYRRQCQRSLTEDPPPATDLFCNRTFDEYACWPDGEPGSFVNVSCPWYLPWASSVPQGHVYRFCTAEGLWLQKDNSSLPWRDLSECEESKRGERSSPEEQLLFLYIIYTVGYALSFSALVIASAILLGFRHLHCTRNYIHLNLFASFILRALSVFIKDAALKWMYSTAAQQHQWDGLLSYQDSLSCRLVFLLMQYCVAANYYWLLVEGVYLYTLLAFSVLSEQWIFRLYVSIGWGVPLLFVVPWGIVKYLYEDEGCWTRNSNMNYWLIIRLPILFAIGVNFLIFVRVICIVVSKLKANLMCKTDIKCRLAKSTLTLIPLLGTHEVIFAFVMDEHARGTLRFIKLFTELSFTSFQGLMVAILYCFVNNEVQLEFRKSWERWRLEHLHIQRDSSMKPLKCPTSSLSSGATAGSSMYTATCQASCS
Method in brief: (§1)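 Cells were resuspended in assay buffer at batch-optimized density, typically 1×10^5 cells/mL for hGLP-1R and 2×10^5 cells/mL for hGCGR. After 30 min incubation at room temperature with compound, cAMP was measured by two-step HTRF. EC50 values came from 4-parameter logistic fits of % Delta F.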

[5] = target: human glucagon receptor (hGCGR) (Homo sapiens, UniProt P47871); test: cAMP production (HTRF) in CHO cells expressing hGCGR; type: cell-based; set-up: expressed in transfected cells; details: cAMP in CHO hGCGR cells, geometric mean, read-out: hGluc-R EC50
Sequence of human glucagon receptor (hGCGR) (P47871 26-477): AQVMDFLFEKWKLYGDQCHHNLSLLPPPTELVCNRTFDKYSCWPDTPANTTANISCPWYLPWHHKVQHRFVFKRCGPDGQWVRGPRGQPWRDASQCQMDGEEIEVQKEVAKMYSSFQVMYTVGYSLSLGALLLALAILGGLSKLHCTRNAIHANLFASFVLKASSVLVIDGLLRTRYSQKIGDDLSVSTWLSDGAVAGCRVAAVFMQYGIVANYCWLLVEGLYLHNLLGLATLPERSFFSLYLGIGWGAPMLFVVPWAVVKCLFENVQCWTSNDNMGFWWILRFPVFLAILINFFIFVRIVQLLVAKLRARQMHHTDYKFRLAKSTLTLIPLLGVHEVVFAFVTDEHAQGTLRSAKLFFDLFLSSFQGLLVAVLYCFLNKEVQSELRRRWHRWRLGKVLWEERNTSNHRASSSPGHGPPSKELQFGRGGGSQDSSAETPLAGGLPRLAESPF
Method in brief: as §1

in vivo = details: male, C57BL/6, mouse, 10 nmol/kg
From the text: Selected test peptides (n=8) were profiled for pharmacokinetic (PK) properties in the mouse after single intravenous (i.v.) or subcutaneous (s.c.) dose. A subset (n=4) meeting the acceptance criteria was subsequently profiled in the dog (single i.v. dose) and non-human primate (single i.v. and s.c. dose). […] Low-binding plasticware containers were used during preparation and sample handling to avoid non-specific binding.
After dosing, PK samples were collected from the dorsal metatarsal vein. Blood of each sample was transferred into plastic micro centrifuge tubes containing EDTA-K2, inverted several times for proper mixing of contents and then placed on wet ice. The blood samples were centrifuged at 4° C. to obtain plasma and stored at −75° C. prior to analysis.
Samples analysis: Samples were analyzed by LC-MS/MS. Calibration standards were injected at the beginning and end of each batch and the determined concentration for each prepared standard was used to construct a calibration curve. Plasma and dose aliquot sample concentrations were determined from the plasma calibration curve.
Data analysis: Plasma concentration data was analyzed by non-compartmental analysis (NCA) using Phoenix Winnonlin v. 8.3.3.33. Linear trapezoidal rule was used for increasing values and log trapezoidal rule was used for decreasing values, applying uniform weighting for lambda_z calculations. Subcutaneous bioavailability was calculated as the ratio AUC(s.c.)0-inf/AUC(i.v.)0-inf. Reported values (Table 18) represent the mean of the individual estimates.

[6] = Table 6, peptides modified at position 17
[7] = Table 7, peptides modified at position 20

remaining at 0.25 h, 125 µM [1] | remaining at 0.5 h, 125 µM [1] | remaining at 4 h (recombinant Neprilysin) | remaining at 24 h (recombinant Neprilysin) | % intact peptide over time (recombinant Neprilysin) | remaining at 5 min, 3.3 mg/mL [2] | remaining at 10 min, 3.3 mg/mL [2] | remaining at 0.25 h, 3.3 mg/mL [2] | remaining at 0.5 h, 3.3 mg/mL [2] | EC50 [4, 6] | % Relative Potency Ratio ([4]; Table 6) | EC50 [5, 6] | EC50 [4, 7] | % Relative Potency Ratio ([4]; Table 7) | EC50 [5, 7] | bioavailability (in vivo) | half-life (in vivo; iv) | SMILES | GLP-1R KO % glucose change 120 min [3] | WT % glucose change 120 min (wildtype (WT) mice)
100% | 100% | 100% | 100% | 100% | 83% | 76% | 69% | 58% | 0.00114 nM | 15.6 | 0.00897 nM | – | – | – | – | – | CCCCCCCCCCCCCCCCCC(=O)N[C@@H](CCC(=O)N[C@@H](CCC(=O)NCCOCCOCCC(=O)NCCOCCOCCC(=O)NCCCC[C@H](NC(=O)[C@H](CO)NC(=O)[C@H](CC(=O)O)NC(=O)[C@H](CC(C)C)NC(=O)[C@](C)(Cc1ccccc1)NC(=O)[C@H](CCCCN)NC(=O)[C@H](CO)NC(=O)[C@@H](NC(=O)[C@H](CC(=O)O)NC(=O)[C@H](CO)NC(=O)[C@@H](NC(=O)[C@](C)(Cc1ccccc1)NC(=O)[C@H](CO)NC(=O)CNC(=O)[C@H](CCC(N)=O)NC(=O)[C@H](CO)NC(=O)[C@@H](N)Cc1c[nH]cn1)[C@@H](C)O)C(C)C)C(=O)N[C@@H](C)C(=O)N[C@@H](C)C(=O)N[C@@H](CCC(N)=O)C(=O)N[C@@H](CC(=O)O)C(=O)N[C@@](C)(Cc1ccccc1)C(=O)N[C@H](C(=O)N[C@@H](CCC(N)=O)C(=O)NC(C)(C)C(=O)N[C@@H](CC(C)C)C(=O)N[C@@H](CCC(=O)O)C(=O)N[C@@H](C)C(=O)NCC(=O)NCC(N)=O)C(C)C)C(=O)O)C(=O)O [Peptide 78] (H-HSQGS[αMeF]TSDVSK[αMeF]LDSK([PEG2-PEG2-γGlu-γGlu-Stearoyl])AAQD[αMeF]VQ[Aib]LEAGG-NH2; N-terminus assumed) | 51.3% | −42.0%
0% | 0% | 77% | 59% | 100% | – | – | – | – | – | – | – | 0.0275 nM | 1.9 | 0.0265 nM | – | – | CC[C@H](C)[C@H](NC(=O)C(C)(C)NC(=O)[C@H](CCC(N)=O)NC(=O)[C@@H](NC(=O)[C@H](Cc1ccccc1)NC(=O)[C@H](CC(=O)O)NC(=O)[C@H](CCCCNC(=O)COCCOCCNC(=O)COCCOCCNC(=O)CC[C@H](NC(=O)CCCCCCCCCCCCCCCCC(=O)O)C(=O)O)NC(=O)[C@H](C)NC(=O)[C@H](C)NC(=O)[C@H](CCCNC(=N)N)NC(=O)[C@H](CO)NC(=O)[C@H](CC(=O)O)NC(=O)[C@H](CC(C)C)NC(=O)[C@](C)(Cc1ccccc1)NC(=O)[C@H](CCCCN)NC(=O)[C@H](CO)NC(=O)[C@@H](NC(=O)[C@H](CC(=O)O)NC(=O)[C@H](CO)NC(=O)[C@@H](NC(=O)[C@](C)(Cc1ccccc1)NC(=O)[C@H](CO)NC(=O)CNC(=O)[C@H](Cc1c[nH]cn1)NC(=O)C(C)(C)NC(=O)[C@@H](N)Cc1c[nH]cn1)[C@@H](C)O)C(C)C)C(C)C)C(=O)N[C@@H](C)C(=O)N[C@@H](CC(N)=O)C(=O)N[C@H](C(N)=O)[C@@H](C)O [Peptide 287] (H-H[Aib]HGS[αMeF]TSDVSK[αMeF]LDSRAAK([AEEA-AEEA-γGlu-C18 diacid])DFVQ[Aib]IANT-NH2) | – | –
– | – | – | – | – | – | – | – | – | 0.0231 nM | 3.2 | 0.0369 nM | – | – | – | 49% | 5.7 h | CC(C)C[C@H](NC(=O)[C@H](Cc1c[nH]c2ccccc12)NC(=O)[C@H](CCCNC(=N)N)NC(=O)[C@@H](NC(=O)[C@H](Cc1ccccc1)NC(=O)[C@H](CC(=O)O)NC(=O)[C@H](CCC(N)=O)NC(=O)[C@H](C)NC(=O)[C@H](CCCNC(=N)N)NC(=O)[C@H](CCCCNC(=O)COCCOCCNC(=O)COCCOCCNC(=O)CC[C@H](NC(=O)CCCCCCCCCCCCCCCCC(=O)O)C(=O)O)NC(=O)[C@H](CCCCN)NC(=O)[C@H](CC(=O)O)NC(=O)[C@H](CC(C)C)NC(=O)[C@](C)(Cc1ccccc1)NC(=O)[C@H](CCCCN)NC(=O)[C@H](CO)NC(=O)[C@@H](NC(=O)[C@H](CC(=O)O)NC(=O)[C@H](CO)NC(=O)[C@@H](NC(=O)[C@H](Cc1ccccc1)NC(=O)[C@@H](NC(=O)CNC(=O)[C@H](CCC(N)=O)NC(=O)C(C)(C)NC(=O)[C@@H](N)Cc1c[nH]cn1)[C@@H](C)O)[C@@H](C)O)C(C)C)C(C)C)C(=O)N[C@@H](CC(C)C)C(=O)NC(C)(C)C(=O)N[C@@H](CCC(=O)O)C(N)=O [Peptide 420] (H-H[Aib]QGTFTSDVSK[αMeF]LDKK([AEEA-AEEA-γGlu-C18 diacid])RAQDFVRWLL[Aib]E-NH2; N-terminus assumed) | – | –
